{"source": "patent US10947210B2", "about": "(priority 2015, dated 2021)", "note": "pIC50: −log10 of the molar value."}
{"biological_target": "HCV RNA-dependent RNA polymerase (NS5B) (Hepatitis C virus genotype 1b (isolate BK) (HCV), UniProt P26663)", "sequence (P26663 2420-3010)": "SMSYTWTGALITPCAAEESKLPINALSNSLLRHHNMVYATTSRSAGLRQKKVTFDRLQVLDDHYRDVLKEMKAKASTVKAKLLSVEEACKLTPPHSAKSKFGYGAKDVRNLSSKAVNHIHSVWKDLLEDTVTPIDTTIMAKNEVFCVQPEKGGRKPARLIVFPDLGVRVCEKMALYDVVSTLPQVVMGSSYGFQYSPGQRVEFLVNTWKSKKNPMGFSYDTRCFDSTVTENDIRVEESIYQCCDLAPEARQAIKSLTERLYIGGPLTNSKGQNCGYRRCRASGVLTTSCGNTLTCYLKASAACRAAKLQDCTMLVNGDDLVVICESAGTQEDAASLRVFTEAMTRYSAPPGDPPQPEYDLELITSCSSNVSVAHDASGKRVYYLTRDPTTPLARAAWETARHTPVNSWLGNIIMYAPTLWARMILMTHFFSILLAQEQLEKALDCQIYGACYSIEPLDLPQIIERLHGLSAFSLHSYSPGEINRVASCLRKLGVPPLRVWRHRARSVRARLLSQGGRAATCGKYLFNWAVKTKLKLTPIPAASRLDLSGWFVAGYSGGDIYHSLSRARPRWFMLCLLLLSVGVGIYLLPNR", "experiment": "RNA-Dependent RNA HCV NS5B (polymerase) Assay and IC50 Determination", "type": "biochemical", "conditions": "purified HCV NS5B polymerase, polyA:U16 substrate, 32P-UTP incorporation; read-out: IC50", "procedure,_shortened": "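Purified NS5B was incubated with 0.5 uM polyA:U16, 10 μM UTP plus ^32P-UTP in 50 mM Hepes-KOH pH 7.5, 5 mM MgCl2, 5 mM DTT, 2% glycerol and 0.01% Triton X-100. Inhibitor reactions ran 60 min at 37° C, and radiolabelled RNA product was quantified after filter capture. IC50 values were obtained from concentration series.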"}
{"smiles": "CCOC(=O)COC(=O)c1ccc(COCCOCCN(c2cc3oc(-c4ccc(F)cc4)c(C(=O)NC)c3cc2C2CC2)S(C)(=O)=O)cc1", "note": "[Compound 06-8B8, 4-[2-(2-{[5-Cyclopropyl-2-(4-fluoro-phenyl)-3-methylcarbamoyl-benzofuran-6-yl]-methanesulfonyl-amino}-ethoxy)-ethoxymethyl]-benzoic Acid Ethoxycarbonylmethyl Ester]", "pIC50": "6.00 to 7.00"}
{"smiles": "CCOC(=O)CCOCCOCCOCCN(c1cc2oc(-c3ccc(F)cc3)c(C(=O)NC)c2cc1C1CC1)S(C)(=O)=O", "note": "[Compound 30-3, 3-{2-[2-(2-{[5-Cyclopropyl-2-(4-fluoro-phenyl)-3-methylcarbamoyl-benzofuran-6-yl]-methanesulfonyl-amino}-ethoxy)-ethoxy]-ethoxy}-propionic acid ethyl ester]", "pIC50": "< 6.00"}
{"smiles": "CNC(=O)c1c(-c2ccc(F)cc2)oc2cc(N(CCOCCOCCOCCOCCOCc3ccc(C(=O)/C=C(\\O)C(=O)O)cc3)S(C)(=O)=O)c(C3CC3)cc12", "note": "[Compound 02-10I, 4-{4-[2-(2-{2-[2-(2-{[5-Cyclopropyl-2-(4-fluoro-phenyl)-3-methylcarbamoyl-benzofuran-6-yl]-methanesulfonyl-amino}-ethoxy)-ethoxy]-ethoxy}-ethoxy)-ethoxymethyl]-phenyl}-2-hydroxy-4-oxo-but-2-enoic Acid]", "pIC50": "< 6.00"}
{"smiles": "CNC(=O)c1c(-c2ccc(F)cc2)oc2cc(N(CCOCCCCc3ccc(C(=O)O)cc3)S(C)(=O)=O)c(C3CC3)cc12", "note": "[Compound 13-8A, 4-[4-(2-{[5-Cyclopropyl-2-(4-fluoro-phenyl)-3-methylcarbamoyl-benzofuran-6-yl]-methanesulfonyl-amino}-ethoxy)-butyl]-benzoic Acid]", "pIC50": "6.00 to 7.00"}
{"smiles": "CNC(=O)c1c(-c2ccc(F)cc2)oc2cc(N(CCOCCOCCc3ccc(C(=O)O)cc3)S(C)(=O)=O)c(C3CC3)cc12", "note": "[Compound 11-6C, 4-{2-[2-(2-{[5-Cyclopropyl-2-(4-fluoro-phenyl)-3-methylcarbamoyl-benzofuran-6-yl]-methanesulfonyl-amino}-ethoxy)-ethoxy]-ethyl}-benzoic Acid]", "pIC50": "6.00 to 7.00"}
{"smiles": "CNC(=O)c1c(-c2ccc(F)cc2)oc2cc(N(CCOCCCCCOCC(=O)OC(C)(C)C)S(C)(=O)=O)c(C3CC3)cc12", "note": "[Compound 27-8A, [5-(2-{[5-Cyclopropyl-2-(4-fluoro-phenyl)-3-methylcarbamoyl-benzofuran-6-yl]-methanesulfonyl-amino}-ethoxy)-pentyloxy]-acetic Acid Tert-butyl Ester]", "pIC50": "< 6.00"}
{"smiles": "CNC(=O)c1c(-c2ccc(F)cc2)oc2cc(N(CCOCCOCc3ccc(C(=O)OC)c(N)c3)S(C)(=O)=O)c(C3CC3)cc12", "note": "[Compound 29-9, 2-Amino-4-[2-(2-{[5-cyclopropyl-2-(4-fluoro-phenyl)-3-methylcarbamoyl-benzofuran-6-yl]-methanesulfonyl-amino}-ethoxy)-ethoxymethyl]-benzoic Acid Methyl Ester]", "pIC50": "6.00 to 7.00"}
{"smiles": "CNC(=O)c1c(-c2ccc(F)cc2)oc2cc(N(CCOCCOCc3ccc(C(=O)O)c4ccccc34)S(C)(=O)=O)c(C3CC3)cc12", "note": "[Compound 20-8, 4-[2-(2-{[5-Cyclopropyl-2-(4-fluoro-phenyl)-3-methylcarbamoyl-benzofuran-6-yl]-methanesulfonyl-amino}-ethoxy)-ethoxymethyl]-naphthalene-1-carboxylic Acid]", "pIC50": "> 7.00"}
{"smiles": "CNC(=O)c1c(-c2ccc(F)cc2)oc2cc(N(CCOCCOCCOCc3ccccc3C(=O)O)S(C)(=O)=O)c(C3CC3)cc12", "note": "[Compound 06-7D, 2-{2-[2-(2-{[5-Cyclopropyl-2-(4-fluoro-phenyl)-3-methylcarbamoyl-benzofuran-6-yl]-methanesulfonyl-amino}-ethoxy)-ethoxy]-ethoxymethyl}-benzoic Acid]", "pIC50": "6.00 to 7.00"}
{"smiles": "CNC(=O)c1c(-c2ccc(F)cc2)oc2cc(N(CCCOCCOCc3cccc(C(C)=O)c3)S(C)(=O)=O)c(C3CC3)cc12", "note": "[Compound 03-6A, 6-(N-(3-(2-((3-acetylbenzyl)-oxy)-ethoxy)-propyl)-methylsulfonamido)-5-cyclopropyl-2-(4-fluorophenyl)-N-methylbenzofuran-3-carboxamide]", "pIC50": "< 6.00"}
{"smiles": "CNC(=O)c1c(-c2ccc(F)cc2)oc2cc(N(CC(=O)NCC(=O)NCc3cccc(C(C)=O)c3)S(C)(=O)=O)c(C3CC3)cc12", "note": "[Compound 30-6, 6-[({[(3-Acetyl-benzylcarbamoyl)-methyl]-carbamoyl}-methyl)-methanesulfonyl-amino]-5-cyclopropyl-2-(4-fluoro-phenyl)-benzofuran-3-carboxylic acid methylamide]", "pIC50": "< 6.00"}
{"smiles": "CNC(=O)c1c(-c2ccc(F)cc2)oc2cc(N(CCCCCCOc3ccc(C(=O)O)cc3)S(C)(=O)=O)c(C3CC3)cc12", "note": "[Compound 15-8, 4-(6-{[5-Cyclopropyl-2-(4-fluoro-phenyl)-3-methylcarbamoyl-benzofuran-6-yl]-methanesulfonyl-amino}-hexyloxy)-benzoic Acid]", "pIC50": "6.00 to 7.00"}
{"smiles": "CCCCOCCOCCOCCN(c1cc2oc(-c3ccc(F)cc3)c(C(=O)NC)c2cc1C1CC1)S(C)(=O)=O", "note": "[Compound 05-4B, 6-({2-[2-(2-Butoxy-ethoxy)-ethoxy]-ethyl}-methanesulfonyl-amino)-5-cyclopropyl-2-(4-fluoro-phenyl)-benzofuran-3-carboxylic Acid Methylamide]", "pIC50": "< 6.00"}
{"smiles": "CNC(=O)c1c(-c2ccc(F)cc2)oc2cc(N(CCOCCOCCOCCOCc3cccc(C(=O)/C=C(\\O)C(=O)O)c3)S(C)(=O)=O)c(C3CC3)cc12", "note": "[Compound 02-10C, 4-[3-(2-{2-[2-(2-{[5-Cyclopropyl-2-(4-fluoro-phenyl)-3-methylcarbamoyl-benzofuran-6-yl]-methanesulfonyl-amino}-ethoxy)-ethoxy]-ethoxy}-ethoxymethyl)-phenyl]-2-hydroxy-4-oxo-but-2-enoic Acid]", "pIC50": "6.00 to 7.00"}
{"smiles": "CNC(=O)c1c(-c2ccc(F)cc2)oc2cc(N(CCOCCOCCOC(C)(C)C(=O)OC(C)(C)C)S(C)(=O)=O)c(C3CC3)cc12", "note": "[Compound 26-6B, 2-{2-[2-(2-{[5-Cyclopropyl-2-(4-fluoro-phenyl)-3-methylcarbamoyl-benzofuran-6-yl]-methanesulfonyl-amino}-ethoxy)-ethoxy]-ethoxy}-2-methyl-propionic Acid Tert-butyl Ester]", "pIC50": "< 6.00"}
{"smiles": "CNC(=O)c1c(-c2ccc(F)cc2)oc2cc(N(CCOCCOCCOC3(C(=O)OC(C)(C)C)CCCC3)S(C)(=O)=O)c(C3CC3)cc12", "note": "[Compound 26-6A]", "pIC50": "< 6.00"}
{"smiles": "CNC(=O)c1c(-c2ccc(F)cc2)oc2cc(N(CCOCCOCCCc3cccc(C(=O)CC(=O)C(=O)O)c3)S(C)(=O)=O)c(C3CC3)cc12", "note": "[Compound 30-8, 4-(3-{3-[2-(2-{[5-Cyclopropyl-2-(4-fluoro-phenyl)-3-methylcarbamoyl-benzofuran-6-yl]-methanesulfonyl-amino}-ethoxy)-ethoxy]-propyl}-phenyl)-2,4-dioxo-butyric acid]", "pIC50": "< 6.00"}
{"smiles": "CNC(=O)c1c(-c2ccc(F)cc2)oc2cc(N(CCOCCOCCc3ccccc3C(=O)O)S(C)(=O)=O)c(C3CC3)cc12", "note": "[Compound 11-6A, 2-{2-[2-(2-{[5-Cyclopropyl-2-(4-fluoro-phenyl)-3-methylcarbamoyl-benzofuran-6-yl]-methanesulfonyl-amino}-ethoxy)-ethoxy]-ethyl}-benzoic Acid]", "pIC50": "> 7.00"}
{"smiles": "CNC(=O)c1c(-c2ccc(F)cc2)oc2cc(N(CC(=O)NCC(=O)NCCCCC(=O)OC)S(C)(=O)=O)c(C3CC3)cc12", "note": "[Compound 10-3A, 5-[2-(2-{[5-Cyclopropyl-2-(4-fluoro-phenyl)-3-methylcarbamoyl-benzofuran-6-yl]-methanesulfonyl-amino}-acetylamino)-acetylamino]-pentanoic Acid Methyl Ester]", "pIC50": "< 6.00"}
{"smiles": "CNC(=O)c1c(-c2ccc(F)cc2)oc2cc(N(CCOCCOCc3ccc(C(=O)O)c([N+](=O)[O-])c3)S(C)(=O)=O)c(C3CC3)cc12", "note": "[Compound 29-8, 4-[2-(2-{[5-Cyclopropyl-2-(4-fluoro-phenyl)-3-methylcarbamoyl-benzofuran-6-yl]-methanesulfonyl-amino}-ethoxy)-ethoxymethyl]-2-nitro-benzoic Acid]", "pIC50": "6.00 to 7.00"}
{"smiles": "CCCCOC(=O)c1ccc(COCCOCCN(c2cc3oc(-c4ccc(F)cc4)c(C(=O)NC)c3cc2C2CC2)S(C)(=O)=O)cc1", "note": "[Compound 06-8B3, 4-[2-(2-{[5-Cyclopropyl-2-(4-fluoro-phenyl)-3-methylcarbamoyl-benzofuran-6-yl]-methanesulfonyl-amino}-ethoxy)-ethoxymethyl]-benzoic Acid Butyl Ester]", "pIC50": "6.00 to 7.00"}
{"smiles": "CNC(=O)c1c(-c2ccc(F)cc2)oc2cc(N(CCOCCOCc3ccc(C(=O)OC)cc3)S(C)(=O)=O)c(C3CC3)cc12", "note": "[Compound 06-6B, 4-[2-(2-{[5-Cyclopropyl-2-(4-fluoro-phenyl)-3-methylcarbamoyl-benzofuran-6-yl]-methanesulfonyl-amino}-ethoxy)-ethoxymethyl]-benzoic Acid Methyl Ester]", "pIC50": "< 6.00"}
{"smiles": "CCOC(=O)c1cccc(CCOCCOCCN(c2cc3oc(-c4ccc(F)cc4)c(C(=O)NC)c3cc2C2CC2)S(C)(=O)=O)c1", "note": "[Compound 11-5B, 3-{2-[2-(2-{[5-Cyclopropyl-2-(4-fluoro-phenyl)-3-methylcarbamoyl-benzofuran-6-yl]-methanesulfonyl-amino}-ethoxy)-ethoxy]-ethyl}-benzoic Acid Ethyl Ester]", "pIC50": "< 6.00"}
{"smiles": "CNC(=O)c1c(-c2ccc(F)cc2)oc2cc(N(CCOCCOCc3ccc(C(=O)OCC(N)=O)cc3)S(C)(=O)=O)c(C3CC3)cc12", "note": "[Compound 06-8B5, 4-[2-(2-{[5-Cyclopropyl-2-(4-fluoro-phenyl)-3-methylcarbamoyl-benzofuran-6-yl]-methanesulfonyl-amino}-ethoxy)-ethoxymethyl]-benzoic Acid Carbamoylmethyl Ester]", "pIC50": "6.00 to 7.00"}
{"smiles": "CNC(=O)c1c(-c2ccc(F)cc2)oc2cc(N(CCOCCOCCOCCOC)S(C)(=O)=O)c(C3CC3)cc12", "note": "[Compound 05-4A, 6-(N-(2,5,8,11-Tetraoxatridecan-13-yl)-methylsulfonamido)-5-cyclopropyl-2-(4-fluorophenyl)-N-methylbenzofuran-3-carboxamide]", "pIC50": "< 6.00"}
